Assay results reported in PubChem BioAssay AID248 (DTP/NCI, 2004).
Where “and” joins values, the source holds several entries; their conditions need not be identical. Equal values may be shown once. Inconclusive results and toxic doses are left out. Rule as the data show it: active = T/C of 150% or more; inactive = T/C below 125%.

Test system: L1210 leukemia ip in BDF1 mice, survival T/C
Assay: NCI In Vivo Anticancer Drug Screen. Data for tumor model L1210 Leukemia (intraperitoneal) in B6D2F1 (BDF1) mice
Details: endpoint: mean survival time, higher = longer survival
How it was run: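 Antitumor effect is assessed in tumor-bearing animals. Survival in the compound arm is compared with a vehicle-dosed control arm and expressed as their quotient.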

[1] = dose: 50.0 mg/kg/injection, schedule: Q01DX009 (ip), vehicle: Klucel (hydroxypropylcellulose) (HPC)
[2] = dose: 100.0 mg/kg/injection, schedule: Q01DX009 (ip), vehicle: Klucel (hydroxypropylcellulose) (HPC)
[3] = dose: 100.0 mg/kg/injection, schedule: Q01DX001 (ip), vehicle: saline
[4] = dose: 200.0 mg/kg/injection, schedule: Q01DX001 (ip), vehicle: saline
[5] = dose: 50.0 mg/kg/injection, schedule: Q01DX009 (ip), vehicle: saline with Tween-80
[6] = dose: 100.0 mg/kg/injection, schedule: Q01DX009 (ip), vehicle: saline with Tween-80
[7] = dose: 100.0 mg/kg/injection, schedule: Q04DX003 (ip), vehicle: saline with Tween-80
[8] = dose: 200.0 mg/kg/injection, schedule: Q04DX003 (ip), vehicle: saline with Tween-80
[9] = dose: 400.0 mg/kg/injection, schedule: Q01DX001 (ip), vehicle: saline
[10] = dose: 6.25 mg/kg/injection, schedule: Q01DX009 (ip), vehicle: saline
[11] = dose: 12.5 mg/kg/injection, schedule: Q01DX009 (ip), vehicle: saline
[12] = dose: 25.0 mg/kg/injection, schedule: Q01DX009 (ip), vehicle: saline
[13] = dose: 25.0 mg/kg/injection, schedule: Q04DX003 (ip), vehicle: saline
[14] = dose: 50.0 mg/kg/injection, schedule: Q01DX009 (ip), vehicle: saline
[15] = dose: 50.0 mg/kg/injection, schedule: Q04DX003 (ip), vehicle: saline
[16] = dose: 100.0 mg/kg/injection, schedule: Q04DX003 (ip), vehicle: saline
[17] = dose: 75.0 mg/kg/injection, schedule: Q01DX001 (ip), vehicle: saline
[18] = dose: 150.0 mg/kg/injection, schedule: Q01DX001 (ip), vehicle: saline
[19] = dose: 400.0 mg/kg/injection, schedule: Q04DX003 (ip), vehicle: saline with Tween-80
[20] = dose: 200.0 mg/kg/injection, schedule: Q01DX009 (ip), vehicle: saline with Tween-80

Measured: T/C

CC(Br)CNC(=O)c1cc([N+](=O)[O-])cc([N+](=O)[O-])c1 (stereo not drawn)
inactive: dose: 75.0 mg/kg/injection, schedule: Q04DX003 (ip), vehicle: Klucel (hydroxypropylcellulose) (HPC) 96 % of control | dose: 150.0 mg/kg/injection, schedule: Q04DX003 (ip), vehicle: Klucel (hydroxypropylcellulose) (HPC) 92 % of control | dose: 300.0 mg/kg/injection, schedule: Q04DX003 (ip), vehicle: Klucel (hydroxypropylcellulose) (HPC) 94 % of control

S=C(NCCN1CCCC1)Nc1ccccc1
inactive: dose: 25.0 mg/kg/injection, schedule: Q01DX009 (ip), vehicle: Klucel (hydroxypropylcellulose) (HPC) 119 % of control | [1] 104 % of control | [2] 97 % of control and 114 % of control

Cn1c(=O)cc(C=Nc2ccc(O)cc2)c2ccccc21
inactive: [3] 94 % of control | [4] 98 % of control

CCCCn1nnc2c(NCCc3cnc[nH]3)nc(N)nc21
inactive: [5] 93 % of control | [6] 95 % of control | [7] 89 % of control | [8] 89 % of control

[O-][n+]1c(C(Cl)(Cl)Cl)cc(Cl)nc1Cl
inactive: dose: 100.0 mg/kg/injection, schedule: Q01DX001 (ip), vehicle: Klucel (hydroxypropylcellulose) (HPC) 98 % of control | dose: 200.0 mg/kg/injection, schedule: Q01DX001 (ip), vehicle: Klucel (hydroxypropylcellulose) (HPC) 97 % of control

CCOP(=O)(O)Cc1c(Cl)c(Cl)c(CP(=O)(O)OCC)c(Cl)c1Cl
inactive: [3] 110 % of control | [4] 104 % of control | [9] 107 % of control

CN(C)CCCC1(C#N)c2ccccc2CCc2ccccc21
inactive: [10] 102 % of control | [11] 105 % of control | [12] 103 % of control | [13] 100 % of control | [14] 113 % of control | [15] 100 % of control | [16] 102 % of control

NC(N)=N/N=C\c1ccc(CCC(=O)O)cc1
inactive: dose: 15.0 mg/kg/injection, schedule: Q01DX Z (ip), vehicle: carboxymethylcellulose (CMC) 97 % of control | dose: 30.0 mg/kg/injection, schedule: Q01DX Z (ip), vehicle: carboxymethylcellulose (CMC) 97 % of control | dose: 60.0 mg/kg/injection, schedule: Q01DX Z (ip), vehicle: carboxymethylcellulose (CMC) 101 % of control | dose: 120.0 mg/kg/injection, schedule: Q01DX Z (ip), vehicle: carboxymethylcellulose (CMC) 97 % of control | dose: 120.0 mg/kg/injection, schedule: Q01DX Z (oral), vehicle: carboxymethylcellulose (CMC) 113 % of control | dose: 240.0 mg/kg/injection, schedule: Q01DX Z (oral), vehicle: carboxymethylcellulose (CMC) 112 % of control | dose: 480.0 mg/kg/injection, schedule: Q01DX Z (oral), vehicle: carboxymethylcellulose (CMC) 109 % of control | dose: 960.0 mg/kg/injection, schedule: Q01DX Z (oral), vehicle: carboxymethylcellulose (CMC) 109 % of control

NCCSC1(O)C(=O)c2ccccc2-c2ccccc21 (stereo not drawn)
inactive: dose: 37.5 mg/kg/injection, schedule: Q04DX003 (ip), vehicle: saline 94 % of control | [17] 101 % of control | dose: 75.0 mg/kg/injection, schedule: Q04DX003 (ip), vehicle: saline 103 % of control | [18] 95 % of control | dose: 150.0 mg/kg/injection, schedule: Q04DX003 (ip), vehicle: saline 95 % of control

CSC(=NC#N)SC
inactive: dose: 1.5 mg/kg/injection, schedule: Q01DX009 (ip), vehicle: Klucel (hydroxypropylcellulose) (HPC) 100 % of control | dose: 1.5 mg/kg/injection, schedule: Q04DX003 (ip), vehicle: Klucel (hydroxypropylcellulose) (HPC) 100 % of control | dose: 3.0 mg/kg/injection, schedule: Q01DX009 (ip), vehicle: Klucel (hydroxypropylcellulose) (HPC) 101 % of control | dose: 3.0 mg/kg/injection, schedule: Q04DX003 (ip), vehicle: Klucel (hydroxypropylcellulose) (HPC) 90 % of control | dose: 6.0 mg/kg/injection, schedule: Q01DX009 (ip), vehicle: Klucel (hydroxypropylcellulose) (HPC) 95 % of control | dose: 6.0 mg/kg/injection, schedule: Q04DX003 (ip), vehicle: Klucel (hydroxypropylcellulose) (HPC) 97 % of control

CSc1nc(Cl)c(Cl)c(SC)n1 (tested in a mixture with another compound)
inactive: [1] 87 % of control | [2] 87 % of control

N/C(N=P(c1ccccc1)(c1ccccc1)c1ccccc1)=N\[N+](=O)[O-]
inactive: dose: 100.0 mg/kg/injection, schedule: Q04DX002 (ip), vehicle: gum acacia 101 % of control | dose: 200.0 mg/kg/injection, schedule: Q04DX002 (ip), vehicle: gum acacia 107 % of control | dose: 400.0 mg/kg/injection, schedule: Q04DX002 (ip), vehicle: gum acacia 101 % of control

COc1ccc(OC)c(NC(=O)Nc2ccc(N(C)C(C)=O)cc2)c1
inactive: dose: 100.0 mg/kg/injection, schedule: Q04DX003 (ip), vehicle: Klucel (hydroxypropylcellulose) (HPC) 90 % of control | dose: 200.0 mg/kg/injection, schedule: Q04DX003 (ip), vehicle: Klucel (hydroxypropylcellulose) (HPC) 87 % of control | dose: 400.0 mg/kg/injection, schedule: Q04DX003 (ip), vehicle: Klucel (hydroxypropylcellulose) (HPC) 88 % of control

CN1CCCN(C(c2ccccc2)c2ccc(Cl)cc2)CC1 (stereo not drawn)
inactive: dose: 7.81 mg/kg/injection, schedule: Q01DX009 (ip), vehicle: saline 96 % of control | dose: 15.62 mg/kg/injection, schedule: Q01DX009 (ip), vehicle: saline 105 % of control | dose: 31.25 mg/kg/injection, schedule: Q01DX009 (ip), vehicle: saline 96 % of control

CC(CN1c2ccccc2Sc2cccnc21)N(C)C (stereo not drawn)
inactive: dose: 3.12 mg/kg/injection, schedule: Q01DX009 (ip), vehicle: saline 97 % of control | [10] 97 % of control | [11] 101 % of control | [12] 103 % of control | [13] 108 % of control | [14] 111 % of control | [15] 102 % of control

Clc1ccc(Cl)c(N=Cc2ccc3c(c2)OCO3)c1
inactive: [16] 92 % of control | dose: 200.0 mg/kg/injection, schedule: Q04DX003 (ip), vehicle: saline 95 % of control | dose: 400.0 mg/kg/injection, schedule: Q04DX003 (ip), vehicle: saline 92 % of control

O=C(O)CCC(=O)CC[N+](=O)[O-]
inactive: [17] 94 % of control | [18] 97 % of control

CCOC(=O)C(=O)c1ccc[nH]1
inactive: dose: 100.0 mg/kg/injection, schedule: Q01DX001 (ip), vehicle: saline with Tween-80 114 % of control | [7] 94 % of control | dose: 200.0 mg/kg/injection, schedule: Q01DX001 (ip), vehicle: saline with Tween-80 115 % of control | [8] 101 % of control | dose: 400.0 mg/kg/injection, schedule: Q01DX001 (ip), vehicle: saline with Tween-80 111 % of control | [19] 92 % of control

O=C1C=CC(=O)C(SCCC(=O)O)=C1
inactive: [5] 102 % of control | dose: 100.0 mg/kg/injection, schedule: Q01DX001 (ip), vehicle: carboxymethylcellulose (CMC) 101 % of control | [6] 97 % of control | [20] 96 % of control

CC1(C)N=C(N)N=C(N)N1c1ccc(OCC(=O)Nc2cccc(S(=O)(=O)F)c2)cc1
inactive: [3] 105 % of control | [4] 91 % of control | [9] 107 % of control

O=C(O)C1C2C=CC21 (stereo not drawn)
inactive: dose: 100.0 mg/kg/injection, schedule: Q01DX001 (ip), vehicle: other 96 % of control | dose: 200.0 mg/kg/injection, schedule: Q01DX001 (ip), vehicle: other 101 % of control | dose: 400.0 mg/kg/injection, schedule: Q01DX001 (ip), vehicle: other 102 % of control

CCCCOC(=O)C1CCCC1=O (stereo not drawn)
inactive: [6] 94 % of control | [7] 97 % of control | [20] 103 % of control | [8] 94 % of control | dose: 400.0 mg/kg/injection, schedule: Q01DX009 (ip), vehicle: saline with Tween-80 95 % of control | [19] 97 % of control
